According to publication PMC10304174, “Development of Zeise’s Salt Derivatives Bearing Substituted Acetylsalicylic Acid Substructures as Cytotoxic COX Inhibitors” (Pharmaceutics, 2023):

Key:
HT-29 cells [1] = test: Crystal violet assay, antiproliferative effects in HT-29 cells; type: cell-based; conditions: HT-29 (COX-1/2-positive), 72 h
Method: (§1) In order to investigate the cytotoxic effects in MCF-7 and HT-29 cells, an already published crystal violet assay was used. The cells (HT-29: 3 × 10^3 cells per well in 100 µL of medium; MCF-7: 2 × 10^3 cells per well in 100 µL of medium) were seeded in their exponential growth phase in completed DMEM into 96-well microtiter plates in quadruples. […] Cells were then fixed with a solution of 1% (v/v) glutaric dialdehyde in PBS. In order to determine the cell biomass, the chromatin of the attached cells was stained with crystal violet, and the bound dye was extracted with EtOH (70%). The absorbance was measured at 590 nm. Mean values ± SD of ≥2 independent experiments were calculated, and the activity of the complexes was expressed as the cell mass of the vehicle-treated control, which was set to 100%.
(§2) The compounds were investigated regarding their cytotoxicity (in vitro) employing an already published crystal violet assay. It is based on the quantification of the cell biomass of living cells by staining the chromatin. In order to evaluate the possible influence of COX inhibition on cell growth, Zeise’s salt derivatives were investigated comparatively in HT-29 and MCF-7 cell lines.

MCF-7 cells [2] = test: Crystal violet assay, antiproliferative effects in MCF-7 cells; type: cell-based; conditions: MCF-7 (COX-negative), 72 h
Method: as §1, §2

[3] = Complex stability by capillary electrophoresis (decrease of initial complex over time); type: physicochemical; conditions: MeOH/water (50/50, v/v), 1 mM, 37 °C, CE
Method: The analysis was performed as previously described. A 50 mM sodium tetraborate solution (pH = 9.3, adjusted with 1 M NaOH), served as background electrolyte (BGE). Washing of novel capillaries consecutively with 1 M NaOH (45 min), water (45 min), and BGE (45 min) was performed. The hydrodynamic injection mode was utilized to introduce the samples into the capillary (50 mbar for 2 s). The capillary was kept at 25 °C, and the autosampler was thermostatted at 37 °C with an external water bath. For separation, the voltage was set to 20 kV, and the detection was carried out at the wavelength of 230 nm. Before each measurement, flushing of the capillary with 0.1 M NaOH (3 min), water (3 min), and BGE (5 min) took place. The samples were dissolved in methanol (MeOH) and further diluted in equal parts by volume with water to give a final concentration of 1 mM. Triple determinations were performed, and the half-lives (τ½) are presented as mean ± SD of ≥3 independent experiments. Samples, washing solutions, and buffers were filtered through a membrane with 0.22 µm porosity and degassed by ultrasonication before use. To simplify the reaction dynamics from a possible second-order to pseudo-first-order, one of two reactants must be present in great excess (>10 to 25-fold). If this condition is fulfilled, logarithmic plotting of the gradual decrease in the other reactant’s concentration (or increase in the concentration of a product, respectively) against the time yields a straight line, and half-lives can be calculated.
An already-established method was used to study the stability of the X-ASA-Prop-PtCl3 and X-ASA-But-PtCl3 complexes. The degradation products were separated by capillary electrophoresis using a fused-silica capillary ([…] × 75 µm, effective length: 56 cm, capillary temperature: 25 °C) and a 50 mM tetraborate buffer (pH = 9.3) as BGE. For separation, the voltage was set to 20 kV and the compounds were detected at 230 nm. Benzoic acid was used as an internal standard. Exemplary electropherograms of each complex can be found in the Supplementary Material (Figures S1–S24).
The complexes (1 mM) were dissolved in MeOH or MeOH/water (50/50, v/v) and stored at 37 °C. The decrease in the initial amount of complex was monitored time-dependently by CE, and the half-life (τ½) was calculated (Table 2).

COX-1 [4] = target: T1, COX-1 (Ovis aries, UniProt P05979); test: COX Inhibitor Screening Assay (EIA) on isolated COX-1 isoenzyme; type: biochemical, ovine; conditions: for Inhibition of COX-1: incubation 10 min
T1 construct: purchased Cayman Chemicals
T1 sequence (P05979 25-600): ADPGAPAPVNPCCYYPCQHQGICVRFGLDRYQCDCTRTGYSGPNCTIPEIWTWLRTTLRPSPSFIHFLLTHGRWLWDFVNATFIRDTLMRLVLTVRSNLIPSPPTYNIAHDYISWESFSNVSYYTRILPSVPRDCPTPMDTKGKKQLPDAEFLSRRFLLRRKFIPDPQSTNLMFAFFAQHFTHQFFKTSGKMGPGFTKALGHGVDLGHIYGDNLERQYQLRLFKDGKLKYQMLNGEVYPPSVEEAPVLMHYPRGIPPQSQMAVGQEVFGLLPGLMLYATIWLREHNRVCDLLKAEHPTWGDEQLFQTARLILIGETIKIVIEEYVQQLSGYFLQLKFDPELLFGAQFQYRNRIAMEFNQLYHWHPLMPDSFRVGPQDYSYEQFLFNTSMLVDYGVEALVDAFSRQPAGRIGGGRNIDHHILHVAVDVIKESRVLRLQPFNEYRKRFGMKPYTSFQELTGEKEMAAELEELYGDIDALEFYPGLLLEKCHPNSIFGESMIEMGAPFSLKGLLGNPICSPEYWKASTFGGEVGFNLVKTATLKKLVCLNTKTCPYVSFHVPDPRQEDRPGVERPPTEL
Method: (§3) The incubation of the respective complexes with the isoenzymes was exactly 10 min. The values of COX inhibition were calculated as the mean of duplicates and shown as the mean ± SD of ≥2 independent experiments.

COX-2 [5] = target: T2, COX-2 (Homo sapiens, UniProt P35354); test: COX Inhibitor Screening Assay (EIA) on isolated COX-2 isoenzyme; type: biochemical; conditions: incubation 10 min
T2 construct: purchased Cayman Chemicals
T2 sequence (P35354 18-604): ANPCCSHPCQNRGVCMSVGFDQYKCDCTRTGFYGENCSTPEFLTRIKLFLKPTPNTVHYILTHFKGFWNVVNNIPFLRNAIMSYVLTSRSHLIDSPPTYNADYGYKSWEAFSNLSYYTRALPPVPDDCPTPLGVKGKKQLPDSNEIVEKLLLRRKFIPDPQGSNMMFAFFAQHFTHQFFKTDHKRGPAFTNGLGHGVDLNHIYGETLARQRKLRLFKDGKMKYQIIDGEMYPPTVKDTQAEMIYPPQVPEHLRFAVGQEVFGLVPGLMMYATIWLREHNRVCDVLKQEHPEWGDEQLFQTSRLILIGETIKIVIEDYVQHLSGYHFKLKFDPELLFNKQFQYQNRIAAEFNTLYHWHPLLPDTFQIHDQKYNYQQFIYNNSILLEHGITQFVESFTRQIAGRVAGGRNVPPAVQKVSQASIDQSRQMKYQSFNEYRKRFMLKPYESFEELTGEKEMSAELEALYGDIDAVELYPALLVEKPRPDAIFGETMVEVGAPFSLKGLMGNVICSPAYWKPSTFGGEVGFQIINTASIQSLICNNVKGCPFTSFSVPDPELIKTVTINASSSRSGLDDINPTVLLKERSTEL
Method: as §3

MCF-7 cells [6] = system: MCF-7 cells; parameters: method as in PMID 29848978; conditions: COX-negative MCF-7 breast cancer cells; cited from earlier work
HT-29 cells [7] = system: HT-29 cells; parameters: method as in PMID 29848978; conditions: COX-1/2-positive HT-29 colon carcinoma cells; cited from earlier work
[8] = system: PGE2 synthesis in HT-29 cells; test: Inhibition of the PGE2 synthesis in HT-29 cells (PGE2 EIA); type: cell-based; conditions: 24 h at 37 °C, then 50 µM arachidonic acid 1 h; for Inhibition of PGE2 synthesis: 10 µM
Method: Exponentially growing HT-29 cells were seeded into 24-well plates at a concentration of 5 × 10^4 cells in 500 µL of cell culture medium per well. […] In the next step, the substrate arachidonic acid (Sigma Aldrich, St. Louis, MO, USA) at a concentration of 50 µM was added. After 1 h, the COX-catalyzed PGE2 production was stopped by removing the supernatant from the cells, which was analyzed by EIA (Prostaglandin E2 Kit—Monoclonal, Cayman Chemicals, Ann Arbor, MI, USA) according to the manufacturer’s protocol.
HT-29 cells express both isoenzymes at high levels, allowing COX-1/2 interaction to be studied using an antibody-based PGE2 assay, which quantifies the PGE2 released by the cells into the cell culture medium. All Zeise’s salt derivatives were tested at a concentration of 10 µM (Figure 4).

COX-2 [9] = target: T2, COX-2; parameters: method as in PMID 29492489, PMID 31617517; conditions: isolated isoenzymes; cited from earlier work
COX-1 [10] = target: T1, COX-1; parameters: method as in PMID 29492489, PMID 31617517; conditions: isolated isoenzymes; cited from earlier work
[11] = parameters: method as in doi:10.1002/zaac.19603050315; conditions: forms elemental platinum in an internal redox reaction; cited from earlier work

CC(=O)Oc1ccc(C)cc1C(=O)OCC[CH]1[CH2][Pt-]1([Cl])([Cl])[Cl].[K+] (stereo not shown) [5-CH3-ASA-But-PtCl3, Potassium trichlorido[η^2-(but-3-en-1-yl)-2-acetoxy-5-methylbenzoate]platinate(II)]
IC50 (HT-29 cells [1]): 16.2 ± 2.5 µM | IC50 (MCF-7 cells [2]): 32.5 ± 4.4 µM | Half-life (τ½) [3]: 3140 ± 258 min | Inhibition of COX-1 (COX-1 [4]; 1 µM): 60.4% | Inhibition of COX-2 (COX-2 [5]; 1 µM): 45.0%

CC(=O)Oc1ccccc1C(=O)OCC[CH]1[CH2][Pt-]1([Cl])([Cl])[Cl].[K+] (stereo not shown) [ASA-But-PtCl3]
Growth inhibition in MCF-7 cells (MCF-7 cells [6]): nearly inactive | Growth inhibition in HT-29 cells (HT-29 cells [7]): low growth inhibitory potential | Half-life (τ½) [3]: 4180 min

CC(=O)Oc1ccc(C)cc1C(=O)OC[CH]1[CH2][Pt-]1([Cl])([Cl])[Cl].[K+] (stereo not shown) [5-CH3-ASA-Prop-PtCl3, Potassium trichlorido[η^2-(prop-2-en-1-yl)-2-acetoxy-5-methylbenzoate]platinate(II)]
Inhibition of PGE2 synthesis [8]: 82.4% | IC50 (HT-29 cells [1]): 21.9 ± 4.6 µM | IC50 (MCF-7 cells [2]): 70.2 ± 2.8 µM | Half-life (τ½) [3]: 36.7 ± 1.1 min

CC(=O)Oc1ccccc1C(=O)OC[CH]1[CH2][Pt-]1([Cl])([Cl])[Cl].[K+] (stereo not shown) [ASA-Prop-PtCl3]
Growth inhibition in MCF-7 cells (MCF-7 cells [6]): nearly inactive | Growth inhibition in HT-29 cells (HT-29 cells [7]): low growth inhibitory potential | Half-life (τ½) [3]: 35.7 min

CC(=O)Oc1c(Cl)cccc1C(=O)OC[CH]1[CH2][Pt-]1([Cl])([Cl])[Cl].[K+] (stereo not shown) [3-Cl-ASA-Prop-PtCl3, Potassium trichlorido[η^2-(prop-2-en-1-yl)-2-acetoxy-3-chlorobenzoate]platinate(II)]
IC50 (HT-29 cells [1]): 89.7 ± 25.7 µM | IC50 (MCF-7 cells [2]): 56.3 ± 5.8 µM | Half-life (τ½) [3]: 31.4 ± 1.7 min | Inhibition of COX-1 (COX-1 [4]; 1 µM): 51.7% | Inhibition of COX-2 (COX-2 [5]; 1 µM): 58.8%

CC(=O)Oc1ccccc1C(=O)O [ASA, Acetylsalicylic acid]
Concentration causing significant effects on COX-2 (COX-2 [9]): higher than 100 µM | inhibition at 10 µM ([8]; Homo sapiens): 17.9% | Concentration causing significant effects on COX-1 (COX-1 [10]): higher than 100 µM

C=C.O.[Cl][Pt-]([Cl])[Cl].[K+] [Zeise’s salt]
Inhibition of PGE2 synthesis [8]: 24.5% | Stability in aqueous environment [11]: not stable | Inhibition of COX-1 (COX-1 [4]; 1 µM): 37.3% | Inhibition of COX-1 (COX-1 [4]; 10 µM): 94.4% | Inhibition of COX-2 (COX-2 [5]; 1 µM): 1.5% | Inhibition of COX-2 (COX-2 [5]; 10 µM): 8.3%

CC(=O)Oc1cc(C)ccc1C(=O)OC[CH]1[CH2][Pt-]1([Cl])([Cl])[Cl].[K+] (stereo not shown) [4-CH3-ASA-Prop-PtCl3, Potassium trichlorido[η^2-(prop-2-en-1-yl)-2-acetoxy-4-methylbenzoate]platinate(II)]
Inhibition of PGE2 synthesis [8]: 88.4% | IC50 (HT-29 cells [1]): 24.2 ± 2.4 µM | IC50 (MCF-7 cells [2]): 62.9 ± 1.6 µM | Half-life (τ½) [3]: 40.4 ± 1.1 min

CC(=O)Oc1cc(Cl)ccc1C(=O)OCC[CH]1[CH2][Pt-]1([Cl])([Cl])[Cl].[K+] (stereo not shown) [4-Cl-ASA-But-PtCl3, Potassium trichlorido[η^2-(but-3-en-1-yl)-2-acetoxy-4-chlorobenzoate]platinate(II)]
IC50 (HT-29 cells [1]): 35.2 ± 9.3 µM | IC50 (MCF-7 cells [2]): 31.7 ± 8.7 µM | Half-life (τ½) [3]: 2370 ± 144 min | Inhibition of COX-1 (COX-1 [4]; 1 µM): 47.9% | Inhibition of COX-2 (COX-2 [5]; 1 µM): 40.0%

CC(=O)Oc1ccc(Cl)cc1C(=O)OC[CH]1[CH2][Pt-]1([Cl])([Cl])[Cl].[K+] (stereo not shown) [5-Cl-ASA-Prop-PtCl3, Potassium trichlorido[η^2-(prop-2-en-1-yl)-2-acetoxy-5-chlorobenzoate]platinate(II)]
Inhibition of PGE2 synthesis [8]: 84.0% | IC50 (HT-29 cells [1]): 53.4 ± 0.7 µM | IC50 (MCF-7 cells [2]): 52.8 ± 9.2 µM | Half-life (τ½) [3]: 35.2 ± 0.9 min | COX-1 selectivity (COX-1 [4]; from inhibition at 1 µM, COX-1 over COX-2): 1.7 fold
